BindingDB's records for PubMed 20126400 (University of Oklahoma, 2010)

Tests used:
Assay in all cases: Ray2010 Assay 74
[1] = biological target: 5-hydroxytryptamine receptor 1E (Homo sapiens, UniProt P28566)
Source text: (§1) Table S2 shows raw Ki data for the current study combined with data collected from the literature for the ten additional compounds.

[2] = biological target: Sodium-dependent noradrenaline transporter (Homo sapiens, UniProt P23975)
Source text: as §1

[3] = biological target: Histamine H4 receptor (Homo sapiens, UniProt Q9H3N8)
Histamine H4 receptor, sequence (Q9H3N8 whole entry): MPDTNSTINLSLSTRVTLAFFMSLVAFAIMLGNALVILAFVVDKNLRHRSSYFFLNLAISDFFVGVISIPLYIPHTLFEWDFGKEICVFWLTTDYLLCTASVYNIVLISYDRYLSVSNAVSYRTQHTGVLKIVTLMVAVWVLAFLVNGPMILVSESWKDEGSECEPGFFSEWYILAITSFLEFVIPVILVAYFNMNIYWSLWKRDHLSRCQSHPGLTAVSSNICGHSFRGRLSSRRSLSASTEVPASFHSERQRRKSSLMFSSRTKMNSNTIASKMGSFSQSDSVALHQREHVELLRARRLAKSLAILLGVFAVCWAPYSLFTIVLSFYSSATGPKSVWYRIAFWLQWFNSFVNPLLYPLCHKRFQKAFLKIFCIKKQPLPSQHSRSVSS
Source text: as §1

[4] = biological target: T1, Alpha-2A adrenergic receptor (Homo sapiens, UniProt P08913)
T1 sequence (P08913 whole entry): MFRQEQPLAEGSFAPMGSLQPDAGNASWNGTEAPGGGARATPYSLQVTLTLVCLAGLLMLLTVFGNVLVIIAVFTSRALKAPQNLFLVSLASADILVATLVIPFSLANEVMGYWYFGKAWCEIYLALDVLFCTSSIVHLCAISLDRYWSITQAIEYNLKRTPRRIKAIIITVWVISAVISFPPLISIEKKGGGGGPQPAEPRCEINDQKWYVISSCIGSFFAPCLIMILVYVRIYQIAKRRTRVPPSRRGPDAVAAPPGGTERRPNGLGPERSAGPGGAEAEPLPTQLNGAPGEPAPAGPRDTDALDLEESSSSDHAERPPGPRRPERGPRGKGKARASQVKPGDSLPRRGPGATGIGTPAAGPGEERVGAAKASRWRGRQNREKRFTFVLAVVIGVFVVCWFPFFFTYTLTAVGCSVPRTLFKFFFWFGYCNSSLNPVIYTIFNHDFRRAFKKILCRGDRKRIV
Source text: as §1

[5] = biological target: D(2) dopamine receptor (Homo sapiens, UniProt P14416)
Source text: as §1

[6] = biological target: Sodium-dependent serotonin transporter (Homo sapiens, UniProt P31645)
Sodium-dependent serotonin transporter, sequence (P31645 whole entry): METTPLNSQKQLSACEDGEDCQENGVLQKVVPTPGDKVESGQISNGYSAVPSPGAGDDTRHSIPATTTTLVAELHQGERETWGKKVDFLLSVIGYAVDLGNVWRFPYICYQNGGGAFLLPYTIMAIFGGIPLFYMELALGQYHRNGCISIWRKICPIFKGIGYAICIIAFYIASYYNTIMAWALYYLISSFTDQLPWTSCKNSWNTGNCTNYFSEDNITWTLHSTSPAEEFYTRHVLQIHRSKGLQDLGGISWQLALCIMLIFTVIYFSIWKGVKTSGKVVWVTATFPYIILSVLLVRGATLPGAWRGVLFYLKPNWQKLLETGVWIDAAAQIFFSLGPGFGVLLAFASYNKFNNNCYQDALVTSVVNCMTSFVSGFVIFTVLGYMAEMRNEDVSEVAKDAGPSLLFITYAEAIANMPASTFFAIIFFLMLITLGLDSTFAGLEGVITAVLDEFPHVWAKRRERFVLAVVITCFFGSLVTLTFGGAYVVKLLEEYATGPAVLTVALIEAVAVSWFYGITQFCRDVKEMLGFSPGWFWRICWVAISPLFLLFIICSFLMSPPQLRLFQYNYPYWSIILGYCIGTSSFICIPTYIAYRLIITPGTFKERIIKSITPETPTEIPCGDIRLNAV
Source text: as §1

[7] = biological target: 5-hydroxytryptamine receptor 5A (Homo sapiens, UniProt P47898)
5-hydroxytryptamine receptor 5A, sequence (P47898 whole entry): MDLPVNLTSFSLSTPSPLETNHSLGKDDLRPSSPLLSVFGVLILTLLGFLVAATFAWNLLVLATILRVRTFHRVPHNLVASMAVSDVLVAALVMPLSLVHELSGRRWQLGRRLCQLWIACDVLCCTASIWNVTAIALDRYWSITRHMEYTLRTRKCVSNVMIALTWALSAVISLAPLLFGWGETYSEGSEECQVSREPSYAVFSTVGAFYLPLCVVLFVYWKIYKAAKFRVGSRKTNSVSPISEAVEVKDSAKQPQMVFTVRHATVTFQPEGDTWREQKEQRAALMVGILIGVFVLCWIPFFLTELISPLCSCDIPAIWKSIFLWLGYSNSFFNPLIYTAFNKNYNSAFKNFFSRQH
Source text: as §1

[8] = biological target: T2, Alpha-1A adrenergic receptor (Homo sapiens, UniProt P35348)
T2 sequence (P35348 whole entry): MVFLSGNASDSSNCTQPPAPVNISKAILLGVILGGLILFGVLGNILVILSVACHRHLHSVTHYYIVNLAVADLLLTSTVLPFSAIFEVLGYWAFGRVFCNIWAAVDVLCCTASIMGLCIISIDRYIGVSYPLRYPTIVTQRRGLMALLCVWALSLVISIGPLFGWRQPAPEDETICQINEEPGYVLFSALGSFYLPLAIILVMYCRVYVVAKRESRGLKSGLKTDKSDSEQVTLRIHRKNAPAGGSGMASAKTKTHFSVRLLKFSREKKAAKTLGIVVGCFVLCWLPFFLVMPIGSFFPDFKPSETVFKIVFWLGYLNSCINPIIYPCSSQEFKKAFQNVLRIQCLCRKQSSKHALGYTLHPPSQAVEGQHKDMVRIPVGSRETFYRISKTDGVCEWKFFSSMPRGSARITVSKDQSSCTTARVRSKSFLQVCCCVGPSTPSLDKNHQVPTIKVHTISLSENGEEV
Source text: as §1

[9] = biological target: D(1B) dopamine receptor (Homo sapiens, UniProt P21918)
D(1B) dopamine receptor, sequence (P21918 whole entry): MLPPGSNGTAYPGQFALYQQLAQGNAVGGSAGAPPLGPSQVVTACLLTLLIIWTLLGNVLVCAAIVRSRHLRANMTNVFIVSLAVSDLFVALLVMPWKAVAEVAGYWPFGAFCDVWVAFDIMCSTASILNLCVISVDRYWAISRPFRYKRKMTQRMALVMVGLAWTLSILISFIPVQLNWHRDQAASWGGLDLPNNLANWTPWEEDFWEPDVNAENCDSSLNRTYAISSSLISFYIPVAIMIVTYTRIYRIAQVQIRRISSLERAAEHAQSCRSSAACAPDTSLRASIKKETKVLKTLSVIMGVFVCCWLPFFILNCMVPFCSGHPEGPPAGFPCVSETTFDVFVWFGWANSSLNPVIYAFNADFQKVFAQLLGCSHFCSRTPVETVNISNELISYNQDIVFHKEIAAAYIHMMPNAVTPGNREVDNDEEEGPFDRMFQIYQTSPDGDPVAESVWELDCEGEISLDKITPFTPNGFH
Source text: as §1

[10] = biological target: D(1A) dopamine receptor (Homo sapiens, UniProt P21728)
D(1A) dopamine receptor, sequence (P21728 whole entry): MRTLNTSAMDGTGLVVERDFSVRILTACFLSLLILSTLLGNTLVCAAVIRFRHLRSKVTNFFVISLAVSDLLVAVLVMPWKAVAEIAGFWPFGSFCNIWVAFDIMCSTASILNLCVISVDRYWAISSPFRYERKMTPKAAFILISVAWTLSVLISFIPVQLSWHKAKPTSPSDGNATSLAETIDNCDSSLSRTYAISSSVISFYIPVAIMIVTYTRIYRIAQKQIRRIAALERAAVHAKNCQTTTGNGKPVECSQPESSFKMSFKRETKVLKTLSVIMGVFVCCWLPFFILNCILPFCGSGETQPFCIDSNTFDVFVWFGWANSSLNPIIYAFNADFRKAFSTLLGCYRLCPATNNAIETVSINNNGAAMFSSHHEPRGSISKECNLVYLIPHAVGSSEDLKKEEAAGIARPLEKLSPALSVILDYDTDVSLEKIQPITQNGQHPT
Source text: as §1

[11] = biological target: 5-hydroxytryptamine receptor 6 (Homo sapiens, UniProt P50406)
Source text: as §1

[12] = biological target: Sodium-dependent dopamine transporter (Homo sapiens, UniProt Q01959)
Sodium-dependent dopamine transporter, sequence (Q01959 whole entry): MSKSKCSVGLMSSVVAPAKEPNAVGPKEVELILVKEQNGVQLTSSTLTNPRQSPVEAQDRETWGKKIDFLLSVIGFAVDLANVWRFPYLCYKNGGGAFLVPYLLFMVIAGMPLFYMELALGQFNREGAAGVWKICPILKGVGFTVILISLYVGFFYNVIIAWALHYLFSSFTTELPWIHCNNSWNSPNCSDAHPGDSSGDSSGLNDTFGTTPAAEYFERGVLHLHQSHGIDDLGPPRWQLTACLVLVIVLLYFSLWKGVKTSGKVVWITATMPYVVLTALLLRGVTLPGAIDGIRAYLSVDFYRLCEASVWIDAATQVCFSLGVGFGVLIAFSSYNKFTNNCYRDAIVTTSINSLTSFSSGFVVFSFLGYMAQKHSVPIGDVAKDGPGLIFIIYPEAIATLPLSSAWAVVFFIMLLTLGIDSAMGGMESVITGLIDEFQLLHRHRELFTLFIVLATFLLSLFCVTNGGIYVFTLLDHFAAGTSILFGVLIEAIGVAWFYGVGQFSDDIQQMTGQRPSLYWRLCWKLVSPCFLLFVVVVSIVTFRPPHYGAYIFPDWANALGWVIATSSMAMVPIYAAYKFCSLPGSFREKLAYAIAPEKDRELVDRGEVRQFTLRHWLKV
Source text: as §1

[13] = biological target: T3, 5-hydroxytryptamine receptor 1A (Homo sapiens, UniProt P08908)
T3 sequence (P08908 whole entry): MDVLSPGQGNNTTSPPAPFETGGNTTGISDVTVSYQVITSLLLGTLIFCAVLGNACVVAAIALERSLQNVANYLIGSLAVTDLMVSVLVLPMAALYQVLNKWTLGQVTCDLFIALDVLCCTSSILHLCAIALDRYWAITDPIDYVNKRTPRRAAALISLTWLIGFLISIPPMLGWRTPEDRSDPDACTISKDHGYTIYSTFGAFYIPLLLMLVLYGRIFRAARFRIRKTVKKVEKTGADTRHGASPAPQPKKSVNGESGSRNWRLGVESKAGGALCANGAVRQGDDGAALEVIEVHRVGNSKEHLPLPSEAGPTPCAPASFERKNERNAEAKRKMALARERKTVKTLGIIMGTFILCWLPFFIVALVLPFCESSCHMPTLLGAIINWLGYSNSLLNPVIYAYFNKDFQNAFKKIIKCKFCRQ
Source text: as §1

[14] = biological target: 5-hydroxytryptamine receptor 2A (Homo sapiens, UniProt P28223)
5-hydroxytryptamine receptor 2A, sequence (P28223 whole entry): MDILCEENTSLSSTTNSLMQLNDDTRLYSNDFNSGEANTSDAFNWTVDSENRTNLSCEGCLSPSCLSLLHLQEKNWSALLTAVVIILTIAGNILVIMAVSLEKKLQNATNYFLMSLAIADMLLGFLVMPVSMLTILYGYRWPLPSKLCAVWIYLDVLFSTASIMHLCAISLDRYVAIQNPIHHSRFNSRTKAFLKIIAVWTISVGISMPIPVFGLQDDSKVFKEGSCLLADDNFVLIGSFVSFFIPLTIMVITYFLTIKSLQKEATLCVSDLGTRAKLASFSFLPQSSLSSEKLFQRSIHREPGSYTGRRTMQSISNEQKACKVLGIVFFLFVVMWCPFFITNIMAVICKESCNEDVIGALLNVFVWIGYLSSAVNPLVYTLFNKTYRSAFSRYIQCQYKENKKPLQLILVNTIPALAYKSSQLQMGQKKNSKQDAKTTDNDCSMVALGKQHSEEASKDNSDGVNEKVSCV
Source text: as §1

[15] = biological target: Histamine H2 receptor (Homo sapiens, UniProt P25021)
Histamine H2 receptor, sequence (P25021 whole entry): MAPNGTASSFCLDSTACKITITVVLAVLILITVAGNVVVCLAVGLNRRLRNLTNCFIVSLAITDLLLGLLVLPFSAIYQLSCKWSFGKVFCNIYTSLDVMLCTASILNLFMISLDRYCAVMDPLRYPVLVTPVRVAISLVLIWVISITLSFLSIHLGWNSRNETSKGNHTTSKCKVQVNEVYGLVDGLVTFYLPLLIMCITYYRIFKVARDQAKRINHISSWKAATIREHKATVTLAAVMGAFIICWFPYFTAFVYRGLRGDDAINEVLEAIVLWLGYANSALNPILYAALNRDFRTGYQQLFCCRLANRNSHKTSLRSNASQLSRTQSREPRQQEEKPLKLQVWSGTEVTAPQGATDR
Source text: as §1

[16] = biological target: T4, Gamma-aminobutyric acid receptor subunit alpha-1 (Homo sapiens, UniProt P14867)
T4 sequence (P14867 whole entry): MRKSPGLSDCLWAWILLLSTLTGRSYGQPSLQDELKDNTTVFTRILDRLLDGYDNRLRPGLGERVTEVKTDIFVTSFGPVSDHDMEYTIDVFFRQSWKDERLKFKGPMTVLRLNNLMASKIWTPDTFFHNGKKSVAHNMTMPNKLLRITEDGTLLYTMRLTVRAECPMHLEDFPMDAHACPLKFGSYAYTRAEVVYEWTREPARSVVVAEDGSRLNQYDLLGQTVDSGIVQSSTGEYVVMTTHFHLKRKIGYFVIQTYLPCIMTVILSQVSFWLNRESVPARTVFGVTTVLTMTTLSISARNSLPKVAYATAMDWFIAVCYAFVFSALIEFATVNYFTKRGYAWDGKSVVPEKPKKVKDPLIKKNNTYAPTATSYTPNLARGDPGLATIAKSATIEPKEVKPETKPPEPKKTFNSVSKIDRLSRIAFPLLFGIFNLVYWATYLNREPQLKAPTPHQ
Source text: as §1

[17] = biological target: Glutamate receptor ionotropic, NMDA 2A (Homo sapiens, UniProt Q12879)
Source text: as §1

5-hydroxytryptamine receptor 1E, sequence (P28566 whole entry): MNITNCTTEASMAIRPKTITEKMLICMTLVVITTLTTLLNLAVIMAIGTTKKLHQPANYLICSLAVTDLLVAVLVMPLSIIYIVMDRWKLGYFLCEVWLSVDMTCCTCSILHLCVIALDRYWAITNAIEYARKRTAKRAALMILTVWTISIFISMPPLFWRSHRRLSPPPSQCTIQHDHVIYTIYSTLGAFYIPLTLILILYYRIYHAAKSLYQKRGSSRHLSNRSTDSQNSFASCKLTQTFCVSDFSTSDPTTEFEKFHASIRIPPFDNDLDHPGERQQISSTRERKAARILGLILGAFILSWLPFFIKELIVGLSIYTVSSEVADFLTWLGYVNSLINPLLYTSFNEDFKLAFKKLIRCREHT
Sodium-dependent noradrenaline transporter, sequence (P23975 whole entry): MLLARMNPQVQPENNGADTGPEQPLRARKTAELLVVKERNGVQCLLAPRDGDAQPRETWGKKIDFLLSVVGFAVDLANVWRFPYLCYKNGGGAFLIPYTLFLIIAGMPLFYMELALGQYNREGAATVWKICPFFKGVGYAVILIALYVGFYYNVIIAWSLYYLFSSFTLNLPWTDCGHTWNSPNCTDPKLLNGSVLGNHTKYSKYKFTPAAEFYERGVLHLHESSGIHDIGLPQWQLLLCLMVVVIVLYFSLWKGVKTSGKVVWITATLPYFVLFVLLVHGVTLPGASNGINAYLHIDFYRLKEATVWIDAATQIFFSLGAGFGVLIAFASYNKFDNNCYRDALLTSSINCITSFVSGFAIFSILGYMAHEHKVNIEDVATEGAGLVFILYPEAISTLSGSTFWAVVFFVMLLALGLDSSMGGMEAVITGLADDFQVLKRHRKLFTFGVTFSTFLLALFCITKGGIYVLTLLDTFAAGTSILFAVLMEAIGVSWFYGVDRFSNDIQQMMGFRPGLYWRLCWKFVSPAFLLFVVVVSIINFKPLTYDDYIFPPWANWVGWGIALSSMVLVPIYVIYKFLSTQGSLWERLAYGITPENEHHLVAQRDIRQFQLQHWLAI

| Structure (SMILES) | Ki [1] | Ki [2] | Ki [3] | Ki [4] | Ki [5] | Ki [6] | Ki [7] | Ki [8] | Ki [9] | Ki [10] | Ki [11] | Ki [12] | Ki [13] | Ki [14] | Ki [15] | Ki [16] | Ki [17] |
| --- | --- | --- | --- | --- | --- | --- | --- | --- | --- | --- | --- | --- | --- | --- | --- | --- | --- |
| COc1cc(CCN)c(OC)cc1Br | 0.12 µM | > 10 µM | > 10 µM | 0.309 µM | 3.37 µM | > 10 µM | > 10 µM | > 10 µM | > 10 µM | > 10 µM | 0.32 µM | > 10 µM | 0.241 µM | 0.0276 µM | > 10 µM | > 10 µM | > 10 µM |
| CCSc1cc(OC)c(CCN)cc1OC [2C-T-2] | 0.415 µM | > 10 µM | > 10 µM | 0.73 µM | 2.79 µM | > 10 µM | > 10 µM | > 10 µM | > 10 µM | > 10 µM | 1.36 µM | > 10 µM | 0.381 µM | 0.0399 µM | > 10 µM | > 10 µM | > 10 µM |
| CC(C)N(CCc1c[nH]c2ccccc12)C(C)C [dipt] | > 10 µM | > 10 µM | > 10 µM | > 10 µM | > 10 µM | 1.26 µM | > 10 µM | > 10 µM | > 10 µM | > 10 µM | > 10 µM | > 10 µM | 0.12 µM | > 10 µM | > 10 µM | > 10 µM | > 10 µM |
